Reference: patent US8809386B2, “Use of dynamin ring stabilizers” (Children's Medical Research Institute, priority 2009, dated 2014)

How the values were obtained:
native brain dynamin I = native brain dynamin I (Ovis aries, UniProt A0ACI6NZN1); experiment: PS liposome-stimulated (helical) dynamin I GTPase activity, inhibition; format: biochemical, sheep; conditions: 5 μM, increasing dynamin concentrations, FIG. 1
Protocol: Each of the dyngo compounds was synthesized by a simple one-step condensation reaction coupling 3-hydroxy-2-naphthoic acid hydrazide with a variety of hydroxyl substituted benzaldehydes affording a focussed library as illustrated by Scheme 1 below (e.g., by mixing the reagents in ethanol (e.g., 10 ml) in a round bottomed flask, refluxing the mixture for 2 hours, allowing it to cool and removing the solvent in vacuo prior to recrystallizing the product from ethanol although other synthesis methods available).
Among the various classes of dynamin inhibitors are subsets of dynamin ring stabilizers.

full length dynamin I = biological target: T1, full length dynamin I (Ovis aries, UniProt A0ACI6NZN1); experiment: Basal dynamin GTPase activity in the absence of PS liposomes or other template (ring stabilizer activity); format: biochemical, sheep
T1 sequence (A0ACI6NZN1 1-864): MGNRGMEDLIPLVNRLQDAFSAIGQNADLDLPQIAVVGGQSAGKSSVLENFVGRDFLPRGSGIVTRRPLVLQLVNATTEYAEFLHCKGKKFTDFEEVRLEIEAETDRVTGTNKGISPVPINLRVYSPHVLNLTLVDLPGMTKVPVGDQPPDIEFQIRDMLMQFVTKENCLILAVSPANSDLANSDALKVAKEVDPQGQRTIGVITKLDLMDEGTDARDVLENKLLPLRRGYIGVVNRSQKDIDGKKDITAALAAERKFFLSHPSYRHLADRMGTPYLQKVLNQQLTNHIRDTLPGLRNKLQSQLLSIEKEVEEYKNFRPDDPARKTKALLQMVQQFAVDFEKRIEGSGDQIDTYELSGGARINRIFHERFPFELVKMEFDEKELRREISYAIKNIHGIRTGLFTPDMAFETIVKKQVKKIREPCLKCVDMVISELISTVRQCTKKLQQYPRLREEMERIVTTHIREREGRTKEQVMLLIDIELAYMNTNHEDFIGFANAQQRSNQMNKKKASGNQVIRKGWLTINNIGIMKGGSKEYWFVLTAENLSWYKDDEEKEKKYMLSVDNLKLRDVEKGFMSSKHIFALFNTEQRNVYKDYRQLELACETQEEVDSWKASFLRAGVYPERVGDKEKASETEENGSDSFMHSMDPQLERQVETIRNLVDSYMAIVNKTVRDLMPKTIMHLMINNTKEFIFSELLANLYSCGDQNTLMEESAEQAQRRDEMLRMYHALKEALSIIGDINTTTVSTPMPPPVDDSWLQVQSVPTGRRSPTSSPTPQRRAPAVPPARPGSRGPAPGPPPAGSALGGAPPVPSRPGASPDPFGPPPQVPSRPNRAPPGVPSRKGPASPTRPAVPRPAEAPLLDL
Protocol: The compounds were present at the indicated concentrations and the concentration causing half-maximal stimulation is shown as the EC50.
Dynamin I (50 nM) GTPase stimulation was performed in the absence of the detergent Tween-80 (and in the absence of any known activators such as PS liposomes, nanotubes or microtubules). […] The GTPase activity of dynamin I (dynI; 200 nM) was measured in the absence of lipid activators (and in the presence of standard Tween-80 at 0.06%).
A compound (whether a dynamin inhibitor or not) can be identified as a dynamin ring stabilizer by assaying for its capacity to promote accumulation of dynamin rings and/or to inhibit disassembly of dynamin rings. […] GTPase activity of dynamin or dynamin rings can be determined by any conventionally known method (e.g., see Quan and Robinson. 2005). Such conditions include: (a) the absence of a helix assembly template such as liposomes, microtubules or lipid nanotubes, and (b) higher concentrations of dynamin than normally required for detecting template stimulated activity, typically 50-500 nM dynamin instead of 1-20 nM. Thus, ring stabilizer activity can be identified by the ability to stimulate the GTPase activity of full length dynamin in the absence of other stimulatory factors (such as PS liposomes, microtubules or nanotubes). Additional defining characteristics are available but are not essential if the first condition has been met. One such additional characteristic of ring stabilizer activity is that the stimulated activity occurs after a lag phase of a few minutes, rather than being an immediate activation in vitro. […] Such conditions typically mean utilising 50-200 nM dynamin in the absence of a template as distinct from higher concentrations where self-assembly is known to occur without the addition of a dynamin ring stabilizer.
Next, a time course experiment of Bis-T-23 stimulation of dynamin GTPase (FIG. 3) was conducted. […] The lag phase is thought to indicate the time required for dynamin to assemble as rings.

[1] = system: mouse expressing ‘gain of function’ α-actinin 4 mutant protein; experiment: Proteinuria in mouse expressing gain of function α-actinin 4 mutant; format: in vivo; conditions: IP, 166 μg/100 g body weight, up to 6 hours after administration, FIG. 20
Protocol: FIG. […] Proteinuria was measured using mouse Albumin-specific ELISA and Creatinine Companion assay kits (Exocell and Bethyl Laboratories) following manufacturer's protocols.
Mice expressing a ‘gain of function’ mutation in the ACTN4 gene encoding for α-actinin 4 has been fully characterized (Kaplan et al. 2000; Henderson et al. 2008; Yao et al. 2004). These animals develop FP effacement and proteinuria due to “hyper bundling” activity of α-actinin 4 mutant that induces aggregation of stress fibers. Proteinuria develops at 4-6 weeks of age. The animals used in the present study were obtained from Dr. Martin Pollak, Brigham and Women's Hospital, Boston, Mass., USA. Proteinuric phenotype was confirmed by determination of urinary albumin and creatinine using mouse Albumin-specific ELISA and Creatinine Companion assay kits (Exocell and Bethyl Laboratories) following the manufacturer's protocols. The control animal was a litermate. Bis-T-23 was dissolved in 100% DMSO to make a 10 μg/μl stock solution, of which 5 μl was diluted in 200 μl of 1×PBS, and this was injected intraperitoneally (IP) into the test animal (166 μg/100 g body weight) at time 0 hr. Protein levels in the urine were measured every 2 hours post injection.

## N#CC(=Cc1cc(O)c(O)c(O)c1)C(=O)NCCCNC(=O)C(C#N)=Cc1cc(O)c(O)c(O)c1 [Bis-T-23, 2-cyano-N-{3-[2-cyano-3-(3,4,5-trihydroxyphenyl)-acryloylamino]-propyl}-3-(3,4,5-trihydroxyphenyl)-acrylamide]
Native brain dynamin I
  inhibition of liposome-stimulated dynamin GTPase activity: potently inhibits dynamin at all points
Full length dynamin I; 5 μM, 800 nM dynamin, 30 mM NaCl, FIG. 3
  lag phase before stimulation of dynamin GTPase activity: about 4 minutes
Full length dynamin I; Dynamin I 50 nM, no Tween-80, no activators, FIG. 11A
  stimulation of basal dynamin GTPase activity in the absence of Tween-80: are dynamin ring stabilizers
Full length dynamin I; FIG. 2, compared with IC50 of 500 nM
  concentration causing 50% activation of basal dynamin activity (EC50): about the same value
Full length dynamin I; absence of liposomes, 5 μM, FIG. 1
  dynamin concentration at which basal GTPase activity is stimulated: ≥ 100 nM
[1]
  proteinuria (urinary albumin and creatinine): decrease in proteinuria to wild-type levels
